Test results taken from US20240270762A1, “PENICILLIN-BINDING PROTEIN INHIBITORS” (priority 2021, published 2024).
In brackets after ≈: the same amount, converted by molar mass.

Legend:
[1] = target: T1, PBP2 from Neisseria gonorrhoeae (FA19) (Neisseria gonorrhoeae, UniProt P08149); assay: Bocillin-FL fluorescence polarization competition binding, N. gonorrhoeae PBP2; conditions: fluorescence polarization competition binding assay using Bocillin-FL, read-out: N. gonorrhoeae PBP2 Potency
T1 construct: made in house
T1 sequence (P08149 whole entry): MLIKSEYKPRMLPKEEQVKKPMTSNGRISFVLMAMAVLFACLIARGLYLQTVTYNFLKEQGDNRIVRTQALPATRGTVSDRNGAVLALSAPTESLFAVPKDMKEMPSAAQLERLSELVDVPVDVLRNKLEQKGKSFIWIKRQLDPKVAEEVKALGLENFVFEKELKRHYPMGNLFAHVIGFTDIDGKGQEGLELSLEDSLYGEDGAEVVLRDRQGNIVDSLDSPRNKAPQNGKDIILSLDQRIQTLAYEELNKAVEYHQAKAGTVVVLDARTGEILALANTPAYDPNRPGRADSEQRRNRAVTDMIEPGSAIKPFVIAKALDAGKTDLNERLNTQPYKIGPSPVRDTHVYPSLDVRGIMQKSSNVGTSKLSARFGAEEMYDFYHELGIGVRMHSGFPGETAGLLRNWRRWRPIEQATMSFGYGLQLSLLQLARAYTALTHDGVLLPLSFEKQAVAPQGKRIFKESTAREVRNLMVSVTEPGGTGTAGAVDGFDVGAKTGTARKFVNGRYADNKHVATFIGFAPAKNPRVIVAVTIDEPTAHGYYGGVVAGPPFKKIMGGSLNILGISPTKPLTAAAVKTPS
Description: To determine the ability of boronic acid-based test PBP inhibitors to bind Penicillin Binding Proteins (PBPs), Bocillin-FL (fluorescently-labeled penicillin V; ThermoFisher Scientific) was used in a fluorescence polarization (FP) competition binding assay to assess inhibitor binding to PBP3 from Escherichia coli (K-12), PBP3 from Pseudomonas aeruginosa (PAO1), PBP1a and PBP3 from Acinetobacter baumannii (ATCC 19606), and PBP2 from Neisseria gonorrhoeae (FA19). PBPs were cloned and purified as described previously (E. coli PBP3, King, D. T, et al., ACS Infectious Diseases 2015, 1, 175-184; P. aeruginosa PBP3, Han et. al., PNAS 2010, 107 (51), 22002-22007; A. baumannii PBPs, Penwell et. al., Antimicrob. Agents Chemother. 2015, 59 (3), 1680-1689; N. gonorrhoeae PBP2, Singh et. al., J. Biol. Chem. 2019, 294 (38), 14020-14032). To establish assay conditions for competition binding, enzyme titration/saturation binding experiments were initially performed. Bocillin-FL was prepared at 0.2 μM in a buffer comprised of 50 mM Hepes (pH 8.0), 300 mM NaCl and 10% (v/v) glycerol for reactions with E. coli, P. aeruginosa and N. gonorrhoeae PBPs, and 25 mM Tris (pH 8.0), 200 mM NaCl, 10% (v/v) glycerol and 0.005% (v/v) Tween 20 for reactions with A. baumannii PBPs. Saturation binding was performed by mixing 40 μl of PBP solutions ranging in concentrations from 0-24 μM with 40 μl of the 0.2 μM Bocillin-FL solution, in individual wells of a black 384-well microplate. FP was measured immediately upon mixing (Excitation, 490 nm; Emission, 520 nm; g-factor, 0.96), using a Cytation3 (BioTek) microplate reader and measured continuously for up to 120 minutes. […] The competition binding assay (80 μl final volume) was validated using beta-lactams and PBPs at final concentrations of: 1.5 μM for E. coli PBP3; 0.75 μM for P. aeruginosa PBP3; 1 μM for A. baumannii PBP1a; 0.2 μM for A. baumannii PBP3; and 0.25 μM for N. gonorrhoeae PBP2. Bocillin-FL was at 0.1 μM (0.05 μM with A. baumannii PBP1a) and beta-lactam concentrations ranged from 0-1,000 μM. E. coli PBP3 was incubated with increasing concentrations of ampicillin in a black 384-well microplate (Corning) for 30 minutes. P. aeruginosa PBP3 was incubated for 15 minutes with aztreonam, whereas A. baumannii PBP1a and PBP3 were incubated for 15 minutes with meropenem, and then Bocillin-FL was added followed immediately by the FP measurement for up to 60 minutes. […] The beta-lactam potency was reported as the concentration of beta-lactam required to reduce the amount of PBP bound-Bocillin-FL by 50% (EC50). […] Binding assays for boronic acid PBP inhibitors were performed in an identical fashion for the respective PBPs.

[2] = system: E. coli 901C; assay: microbe, parasite or virus in culture; format: cell-based; conditions: Escherichia coli, read-out: MIC E. coli 901C

Compound	EC50 [1]	MIC [2]
CS(=O)(=O)N1CCN(C(=O)N[C@@H](C(=O)N[C@H]2Cc3cccc(C(=O)O)c3OB2O)c2ccc(P(=O)(O)O)c(F)c2)C1=O (single isomer, unassigned) [Example 15]	< 10 µM	< 1 µg/mL
O=C(N[C@@H](C(=O)N[C@H]1Cc2cccc(C(=O)O)c2OB1O)c1ccc(P(=O)(O)O)cc1)c1ccc(C(F)(F)F)cn1 (single isomer, unassigned) [Example 193]	< 10 µM	< 1 µg/mL
O=C(O)c1cccc2c1OB(O)[C@@H](NC(=O)C(NC(=O)N1CCCC1=O)c1ccc(P(=O)(O)O)cc1)C2 (stereo partly drawn) [Example 57, (3R)-2-hydroxy-3-(2-(2-oxopyrrolidine-1-carboxamido)-2-(4-phosphonophenyl)acetamido)-3,4-dihydro-2H-benzo[e][1,2]oxaborinine-8-carboxylic acid]	< 10 µM	< 1 µg/mL
O=C(O)c1cccc2c1OB(O)[C@@H](NC(=O)[C@H](NC(=O)c1ccn[nH]c1=O)c1ccc(P(=O)(O)O)cc1)C2 (single isomer, unassigned) [Example 178]	< 10 µM	< 1 µg/mL
CN1CCCN(C(=O)NC(C(=O)N[C@H]2Cc3cccc(C(=O)O)c3OB2O)c2ccc(P(=O)(O)O)cc2)C1=O (stereo partly drawn) [Example 38, (3R)-2-hydroxy-3-(2-(3-methyl-2-oxohexahydropyrimidine-1-carboxamido)-2-(4-phosphonophenyl)acetamido)-3,4-dihydro-2H-benzo[e][1,2]oxaborinine-8-carboxylic acid]	< 10 µM	2 to 4 µg/mL (≈ 3.57 to 7.14 µM)
CC(C)(C)C(=O)NC(C(=O)N[C@H]1Cc2cccc(C(=O)O)c2OB1O)c1ccc(P(=O)(O)O)cc1 (stereo partly drawn) [Example 29, (3R)-2-hydroxy-3-(2-(4-phosphonophenyl)-2-pivalamidoacetamido)-3,4-dihydro-2H-benzo[e][1,2]oxaborinine-8-carboxylic acid]	< 10 µM	8 to 16 µg/mL (≈ 15.9 to 31.7 µM)
CS(=O)(=O)N1CCN(C(=O)N[C@@H](C(=O)N[C@H]2Cc3ccc(F)c(C(=O)O)c3OB2O)c2ccc(P(=O)(O)O)c(F)c2F)C1=O [Example 16, (R)-3-((R)-2-(2,3-difluoro-4-phosphonophenyl)-2-(3-(methylsulfonyl)-2-oxoimidazolidine-1-carboxamido)acetamido)-7-fluoro-2-hydroxy-3,4-dihydro-2H-benzo[e][1,2]oxaborinine-8-carboxylic acid]	< 10 µM	< 1 µg/mL
CCN1CCN(C(=O)N[C@@H](C(=O)N[C@H]2Cc3ccc(F)c(C(=O)O)c3OB2O)c2ccc(P(=O)(O)O)cc2)C(=O)C1=O (single isomer, unassigned) [Example 10]	< 10 µM	< 1 µg/mL
CCN1CCN(C(=O)NC(C(=O)N[C@H]2Cc3cccc(C(=O)O)c3OB2O)c2cccc(CP(=O)(O)O)c2)C(=O)C1=O (stereo partly drawn) [Example 22, (3R)-3-(2-(4-ethyl-2,3-dioxopiperazine-1-carboxamido)-2-(3-(phosphonomethyl)phenyl)acetamido)-2-hydroxy-3,4-dihydro-2H-benzo[e][1,2]oxaborinine-8-carboxylic acid]	< 10 µM	< 1 µg/mL
CS(=O)(=O)N1CCN(C(=O)N[C@@H](C(=O)N[C@H]2Cc3cccc(C(=O)O)c3OB2O)c2ccc(P(=O)(O)O)c(F)c2F)C1=O (single isomer, unassigned) [Example 13]	< 10 µM	< 1 µg/mL
O=C(O)c1cccc2c1OB(O)[C@@H](NC(=O)[C@@H](NC(=O)c1ccn[nH]c1=O)c1ccc(P(=O)(O)O)cc1)C2 (single isomer, unassigned) [Example 177]	< 10 µM	2 to 4 µg/mL (≈ 3.69 to 7.38 µM)
CS(=O)(=O)N1CCN(C(=O)N[C@@H](C(=O)N[C@H]2Cc3ccc(F)c(C(=O)O)c3OB2O)c2ccc(P(=O)(O)O)c(F)c2)C1=O (single isomer, unassigned) [Example 19]	< 10 µM	< 1 µg/mL
CCN1CCN(C(=O)NC(C(=O)N[C@H]2Cc3cccc(C(=O)O)c3OB2O)c2ccc(CP(=O)(O)O)cc2)C(=O)C1=O (stereo partly drawn) [Example 20, (3R)-3-(2-(4-ethyl-2,3-dioxopiperazine-1-carboxamido)-2-(4-(phosphonomethyl)phenyl)acetamido)-2-hydroxy-3,4-dihydro-2H-benzo[e][1,2]oxaborinine-8-carboxylic acid]	< 10 µM	< 1 µg/mL
CS(=O)(=O)N1CCC[C@H]1C(=O)N[C@@H](C(=O)N[C@H]1Cc2cccc(C(=O)O)c2OB1O)c1ccc(P(=O)(O)O)cc1 [Example 44, (R)-2-hydroxy-3-((R)-2-((S)-1-(methylsulfonyl)pyrrolidine-2-carboxamido)-2-(4-phosphonophenyl)acetamido)-3,4-dihydro-2H-benzo[e][1,2]oxaborinine-8-carboxylic acid]	< 10 µM	2 to 4 µg/mL (≈ 3.36 to 6.72 µM)
N[C@@H](C(=O)N[C@H]1Cc2cccc(C(=O)O)c2OB1O)c1ccc(P(=O)(O)O)cc1 (single isomer, unassigned) [Example 171]	10 to 50 µM	> 128 µg/mL
CS(=O)(=O)N1CCN(C(=O)NC(C(=O)N[C@H]2Cc3cccc(C(=O)O)c3OB2O)c2ccc(P(=O)(O)O)c(O)c2)C1=O (stereo partly drawn) [Example 17, (3R)-2-hydroxy-3-(2-(3-hydroxy-4-phosphonophenyl)-2-(3-(methylsulfonyl)-2-oxoimidazolidine-1-carboxamido)acetamido)-3,4-dihydro-2H-benzo[e][1,2]oxaborinine-8-carboxylic acid]	< 10 µM	< 1 µg/mL
O=C(N[C@H](C(=O)N[C@H]1Cc2cccc(C(=O)O)c2OB1O)c1ccc(P(=O)(O)O)cc1)c1ccc(C(F)(F)F)cn1 (single isomer, unassigned) [Example 192]	< 10 µM	< 1 µg/mL
CCC(=O)NC(C(=O)N[C@H]1Cc2cccc(C(=O)O)c2OB1O)c1ccc(P(=O)(O)O)cc1 (stereo partly drawn) [Example 27, (3R)-2-hydroxy-3-(2-(4-phosphonophenyl)-2-propionamidoacetamido)-3,4-dihydro-2H-benzo[e][1,2]oxaborinine-8-carboxylic acid]	10 to 50 µM	8 to 16 µg/mL (≈ 16.8 to 33.6 µM)
O=C(O)c1cccc2c1OB(O)[C@@H](NC(=O)[C@@H](NC(=O)N1CCCCC1=O)c1ccc(P(=O)(O)O)cc1)C2 [Example 36, (R)-2-hydroxy-3-((S)-2-(2-oxopiperidine-1-carboxamido)-2-(4-phosphonophenyl)acetamido)-3,4-dihydro-2H-benzo[39e][1,2]oxaborinine-8-carboxylic acid]	10 to 50 µM	8 to 16 µg/mL (≈ 14.7 to 29.3 µM)
O=C(O)c1cccc2c1OB(O)[C@@H](NC(=O)[C@H](NC(=O)N1CCNC1=O)c1ccc(P(=O)(O)O)cc1)C2 [Example 40, (R)-2-hydroxy-3-((R)-2-(2-oxoimidazolidine-1-carboxamido)-2-(4-phosphonophenyl)acetamido)-3,4-dihydro-2H-benzo[e][1,2]oxaborinine-8-carboxylic acid]	< 10 µM	< 1 µg/mL
CS(=O)(=O)N1CCC[C@@H]1C(=O)N[C@H](C(=O)N[C@H]1Cc2cccc(C(=O)O)c2OB1O)c1ccc(P(=O)(O)O)cc1 [Example 34, (R)-2-hydroxy-3-((S)-2-((R)-1-(methylsulfonyl)pyrrolidine-2-carboxamido)-2-(4-phosphonophenyl)acetamido)-3,4-dihydro-2H-benzo[e][1,2]oxaborinine-8-carboxylic acid]	50 to 250 µM	8 to 16 µg/mL (≈ 13.4 to 26.9 µM)
CCN1CCN(C(=O)NC(C(=O)N[C@H]2Cc3cccc(C(=O)O)c3OB2O)c2ccc(P(=O)(O)O)cc2)C1=O (stereo partly drawn) [Example 42, (3R)-3-(2-(3-ethyl-2-oxoimidazolidine-1-carboxamido)-2-(4-phosphonophenyl)acetamido)-2-hydroxy-3,4-dihydro-2H-benzo[e][1,2]oxaborinine-8-carboxylic acid]	< 10 µM	< 1 µg/mL
CN1CCN(C(=O)NC(C(=O)N[C@H]2Cc3cccc(C(=O)O)c3OB2O)c2ccc(P(=O)(O)O)cc2)C1=O (stereo partly drawn) [Example 41, (3R)-2-hydroxy-3-(2-(3-methyl-2-oxoimidazolidine-1-carboxamido)-2-(4-phosphonophenyl)acetamido)-3,4-dihydro-2H-benzo[e][1,2]oxaborinine-8-carboxylic acid]	< 10 µM	< 1 µg/mL
